Laboratory results from the NIST ThermoML archive (doi:10.1016/j.fluid.2010.08.022).

Settings: 101.33 kPa; for speed of sound: Sing-around technique in a fixed-path interferometer; for mass density: Vibrating tube method

CCCCCCCC/C=C\CCCCCCCC(=O)O.NCCO [2-hydroxyethylammonium oleate]
Settings | mass density [kg/m3] | speed of sound [m/s]
278.16 K, Crystal | 955.929 | 1635.4
278.41 K, Crystal | 955.757 | 1634.1
278.66 K, Crystal | 955.58 | 1632.7
278.9 K, Crystal | 955.409 | 1631.4
279.16 K, Crystal | 955.234 | 1630
279.41 K, Crystal | 955.057 | 1628.7
279.65 K, Crystal | 954.881 | 1627.4
279.91 K, Crystal | 954.704 | 1626.1
280.16 K, Crystal | 954.527 | 1624.7
280.41 K, Crystal | 954.349 | 1623.4
280.65 K, Crystal | 954.172 | 1622.1
280.91 K, Crystal | 953.991 | 1620.8
281.15 K, Crystal | 953.811 | 1619.5
281.41 K, Crystal | 953.63 | 1618.2
281.66 K, Crystal | 953.448 | 1616.8
281.91 K, Crystal | 953.266 | 1615.5
282.16 K, Crystal | 953.081 | 1614.2
282.41 K, Crystal | 952.898 | 1612.9
282.66 K, Crystal | 952.714 | 1611.6
282.91 K, Crystal | 952.526 | 1610.3
283.16 K, Crystal | 952.337 | 1608.9
283.41 K, Crystal | 952.15 | 1607.6
283.66 K, Crystal | 951.962 | 1606.3
283.91 K, Crystal | 951.769 | 1605
284.16 K, Crystal | 951.578 | 1603.6
284.41 K, Crystal | 951.383 | 1602.3
284.66 K, Crystal | 951.188 | 1600.8
284.91 K, Crystal | 950.989 | 1599.3
285.15 K, Crystal | 950.796 | 1597.7
285.4 K, Crystal | 950.604 | 1595.8
285.65 K, Crystal | 950.404 | 1592.8
285.9 K, Crystal | 950.405 | 1593.2
286.15 K, Liquid crystal of unknown type | 944.693 | 1554.4
286.4 K, Liquid crystal of unknown type | 944.221 | 1552.7
286.65 K, Liquid crystal of unknown type | 944.256 | 1553.3
286.9 K, Liquid crystal of unknown type | 943.886 | 1551.5
287.15 K, Liquid crystal of unknown type | 943.629 | 1550.2
287.4 K, Liquid crystal of unknown type | 943.416 | 1548.9
287.65 K, Liquid crystal of unknown type | 943.228 | 1547.7
287.9 K, Liquid crystal of unknown type | 943.055 | 1546.7
288.15 K, Liquid crystal of unknown type | 942.888 | 1545.7
288.4 K, Liquid crystal of unknown type | 942.726 | 1544.7
288.65 K, Liquid crystal of unknown type | 942.565 | 1543.7
288.9 K, Liquid crystal of unknown type | 942.405 | 1542.7
289.15 K, Liquid crystal of unknown type | 942.244 | 1541.8
289.4 K, Liquid crystal of unknown type | 942.083 | 1540.8
289.65 K, Liquid crystal of unknown type | 941.923 | 1539.9
289.9 K, Liquid crystal of unknown type | 941.764 | 1539
290.15 K, Liquid crystal of unknown type | 941.604 | 1538.1
290.4 K, Liquid crystal of unknown type | 941.445 | 1537.2
290.66 K, Liquid crystal of unknown type | 941.282 | 1536.2
290.9 K, Liquid crystal of unknown type | 941.124 | 1535.3
291.15 K, Liquid crystal of unknown type | 940.965 | 1534.4
291.4 K, Liquid crystal of unknown type | 940.805 | 1533.5
291.65 K, Liquid crystal of unknown type | 940.646 | 1532.6
291.91 K, Liquid crystal of unknown type | 940.485 | 1531.7
292.15 K, Liquid crystal of unknown type | 940.327 | 1530.8
292.41 K, Liquid crystal of unknown type | 940.167 | 1530
292.65 K, Liquid crystal of unknown type | 940.008 | 1529.1
292.9 K, Liquid crystal of unknown type | 939.848 | 1528.2
293.16 K, Liquid crystal of unknown type | 939.688 | 1527.3
293.4 K, Liquid crystal of unknown type | 939.529 | 1526.4
293.66 K, Liquid crystal of unknown type | 939.369 | 1525.5
293.9 K, Liquid crystal of unknown type | 939.211 | 1524.6
294.16 K, Liquid crystal of unknown type | 939.05 | 1523.7
294.41 K, Liquid crystal of unknown type | 938.892 | 1522.9
294.66 K, Liquid crystal of unknown type | 938.731 | 1522
294.91 K, Liquid crystal of unknown type | 938.572 | 1521.1
295.16 K, Liquid crystal of unknown type | 938.414 | 1520.2
295.41 K, Liquid crystal of unknown type | 938.256 | 1519.4
295.66 K, Liquid crystal of unknown type | 938.095 | 1518.5
295.91 K, Liquid crystal of unknown type | 937.936 | 1517.6
296.16 K, Liquid crystal of unknown type | 937.777 | 1516.8
296.41 K, Liquid crystal of unknown type | 937.618 | 1515.9
296.66 K, Liquid crystal of unknown type | 937.459 | 1515
296.91 K, Liquid crystal of unknown type | 937.301 | 1514.2
297.16 K, Liquid crystal of unknown type | 937.14 | 1513.3
297.41 K, Liquid crystal of unknown type | 936.981 | 1512.5
297.66 K, Liquid crystal of unknown type | 936.822 | 1511.6
297.91 K, Liquid crystal of unknown type | 936.662 | 1510.8
298.15 K, Liquid crystal of unknown type | 936.505 | 1509.9
298.41 K, Liquid crystal of unknown type | 936.345 | 1509
298.66 K, Liquid crystal of unknown type | 936.186 | 1508.2
298.91 K, Liquid crystal of unknown type | 936.026 | 1507.3
299.15 K, Liquid crystal of unknown type | 935.868 | 1506.5
299.41 K, Liquid crystal of unknown type | 935.709 | 1505.6
299.66 K, Liquid crystal of unknown type | 935.55 | 1504.8
299.91 K, Liquid crystal of unknown type | 935.39 | 1503.9
300.16 K, Liquid crystal of unknown type | 935.231 | 1503
300.41 K, Liquid crystal of unknown type | 935.072 | 1502.2
300.66 K, Liquid crystal of unknown type | 934.914 | 1501.3
300.9 K, Liquid crystal of unknown type | 934.755 | 1500.5
301.16 K, Liquid crystal of unknown type | 934.596 | 1499.7
301.41 K, Liquid crystal of unknown type | 934.436 | 1498.8
301.66 K, Liquid crystal of unknown type | 934.277 | 1498
301.91 K, Liquid crystal of unknown type | 934.118 | 1497.1
302.16 K, Liquid crystal of unknown type | 933.959 | 1496.3
302.41 K, Liquid crystal of unknown type | 933.802 | 1495.5
302.66 K, Liquid crystal of unknown type | 933.642 | 1494.6
302.91 K, Liquid crystal of unknown type | 933.483 | 1493.8
303.16 K, Liquid crystal of unknown type | 933.324 | 1492.9
303.4 K, Liquid crystal of unknown type | 933.167 | 1492.1
303.66 K, Liquid crystal of unknown type | 933.005 | 1491.3
303.91 K, Liquid crystal of unknown type | 932.846 | 1490.4
304.16 K, Liquid crystal of unknown type | 932.688 | 1489.6
304.41 K, Liquid crystal of unknown type | 932.529 | 1488.8
304.66 K, Liquid crystal of unknown type | 932.371 | 1488
304.91 K, Liquid crystal of unknown type | 932.212 | 1487.1
305.16 K, Liquid crystal of unknown type | 932.053 | 1486.3
305.41 K, Liquid crystal of unknown type | 931.892 | 1485.5
305.66 K, Liquid crystal of unknown type | 931.734 | 1484.7
305.9 K, Liquid crystal of unknown type | 931.576 | 1483.8
306.16 K, Liquid crystal of unknown type | 931.416 | 1483
306.4 K, Liquid crystal of unknown type | 931.258 | 1482.2
306.66 K, Liquid crystal of unknown type | 931.098 | 1481.4
306.91 K, Liquid crystal of unknown type | 930.939 | 1480.5
307.16 K, Liquid crystal of unknown type | 930.781 | 1479.7
307.41 K, Liquid crystal of unknown type | 930.622 | 1478.9
307.66 K, Liquid crystal of unknown type | 930.464 | 1478.1
307.91 K, Liquid crystal of unknown type | 930.304 | 1477.3
308.16 K, Liquid crystal of unknown type | 930.145 | 1476.4
308.41 K, Liquid crystal of unknown type | 929.987 | 1475.6
308.65 K, Liquid crystal of unknown type | 929.828 | 1474.8
308.91 K, Liquid crystal of unknown type | 929.668 | 1474
309.16 K, Liquid crystal of unknown type | 929.509 | 1473.2
309.4 K, Liquid crystal of unknown type | 929.35 | 1472.3
309.66 K, Liquid crystal of unknown type | 929.189 | 1471.5
309.91 K, Liquid crystal of unknown type | 929.032 | 1470.7
310.16 K, Liquid crystal of unknown type | 928.874 | 1469.9
310.41 K, Liquid crystal of unknown type | 928.713 | 1469
310.66 K, Liquid crystal of unknown type | 928.554 | 1468.2
310.91 K, Liquid crystal of unknown type | – | 1467.4
